Measured values from US20110105408A1, “THERAPEUTIC PEPTIDES” (INTER-K PTY LIMITED, priority 2008, published 2011).

Tested on: HT29 human colorectal adenocarcinoma tumour
Experiment: Inhibition of HT29 tumour growth in a mouse model, intra-tumoural injection
Assay type: in vivo, Mouse (Mus musculus) BALB/c nu/nu
Conditions: for Tumour volume, Delta avg: change in volume from day 0
Description: HT29 human colorectal adenocarcinoma cells were cultured in RPMI 1640 cell culture medium supplemented with 10% v/v FCS and 50 IU/mL penicillin-streptomycin. The cells were harvested by trypsinisation, washed twice in HBSS and counted. The cells were then resuspended in HBSS to a final concentration of 2×10^7 cells/mL.
• Species: Mouse (Mus musculus) • Strain: BALB/c nu/nu • Source: University of Adelaide (Waite Campus, Urrbrae, SA, Australia) • Total number of animals in study: 20 females • Number of study groups: 2 (1 test, 1 control) • Number of mice per group: 10 • Body weight range: 20.61-25.27 g at onset of treatment (mean 22.27 g) • Age range: 10-12 weeks at onset of treatment.
Prior to inoculation the skin on the injection site (dorsal right flank) was swabbed with alcohol. The needle was introduced through the skin into the subcutaneous space just below the animal's right shoulder, and 100 μL of cells (2×10^6 cells) were discharged. The treatment of mice began nine days after HT29 cell inoculation, the average tumour volume was 68 mm^3 (average variability of 6.1%).
Body weight and tumour dimensions (length and diameter) were measured for all animals on the first day of treatment (day 0) and then three times per week, including the termination day of the study (Day 24).
Mice were randomized, based on body weight, into two groups of ten mice on Day 0 of the study. The peptide dendrimer IK248B presenting 10 monomer units of the peptide RSKAKNPLYR (SEQ ID No. 6) (see Example 8) was used in this study. The vehicle control (phosphate buffered saline (PBS)) and IK248B dendrimer (20 mg/kg) were each administered by intra-tumoural injection once daily for five consecutive days, beginning on Day 0.
The vehicle control and IK248B dendrimer were administered at a dosing volume of 4.762 mL/kg (100 μL) based on a 21 g mouse. Each animal's body weight was measured immediately prior to dosing. The volume of dosing solution administered to each mouse was calculated and adjusted based on individual body weight.
Tumours were excised from all mice post mortem and weighed. Tumour volume was calculated using the equation:
V(mm^3)=length×diameter^2×p/6
ΔT/ΔC(%) was calculated using the following equation:
ΔT/ΔC(%)=(ΔvolumeTreatment/ΔVolumeControl)×100
where Δ=change in volume from day 0 to the final measurement day or nominated day of interest.
All statistical calculations were performed using SigmaStat 3.0 (SPSS Australasia, North Sydney, NSW, Australia). A two-sample t-test was used to determine the significance in body weight change within a treatment group between day 0 and day 4, and between day 0 and the termination day of the study. A One-Way Analysis of Variance (ANOVA) was performed on tumour volumes measured in all mice at the end of the study. Where significant differences were found in the data, the All Pairwise Multiple Comparison Procedures (Holm-Sidak Method) were performed. A two-sample t-test was used to show a significant difference between the tumour weight data for the vehicle control and Dend 10 10(4) treatment groups. A p value of less than 0.05 was considered significant.

CC(C)C[C@H](NC(=O)[C@@H]1CCCN1C(=O)[C@H](CC(N)=O)NC(=O)[C@H](CCCCN)NC(=O)[C@H](C)NC(=O)[C@H](CCCCN)NC(=O)[C@H](CO)NC(=O)[C@@H](N)CCCNC(=N)N)C(=O)N[C@@H](Cc1ccc(O)cc1)C(=O)N[C@@H](CCCNC(=N)N)C(=O)NCCCC[C@H](NC(=O)[C@H](CCCCNC(=O)[C@H](CCCCNC(=O)[C@H](CCCNC(=N)N)NC(=O)[C@H](Cc1ccc(O)cc1)NC(=O)[C@H](CC(C)C)NC(=O)[C@@H]1CCCN1C(=O)[C@H](CC(N)=O)NC(=O)[C@H](CCCCN)NC(=O)[C@H](C)NC(=O)[C@H](CCCCN)NC(=O)[C@H](CO)NC(=O)[C@@H](N)CCCNC(=N)N)NC(=O)[C@H](CCCNC(=N)N)NC(=O)[C@H](Cc1ccc(O)cc1)NC(=O)[C@H](CC(C)C)NC(=O)[C@@H]1CCCN1C(=O)[C@H](CC(N)=O)NC(=O)[C@H](CCCCN)NC(=O)[C@H](C)NC(=O)[C@H](CCCCN)NC(=O)[C@H](CO)NC(=O)[C@@H](N)CCCNC(=N)N)NC(=O)[C@H](CCCCNC(=O)[C@H](CCCNC(=N)N)NC(=O)[C@H](Cc1ccc(O)cc1)NC(=O)[C@H](CC(C)C)NC(=O)[C@@H]1CCCN1C(=O)[C@H](CC(N)=O)NC(=O)[C@H](CCCCN)NC(=O)[C@H](C)NC(=O)[C@H](CCCCN)NC(=O)[C@H](CO)NC(=O)[C@@H](N)CCCNC(=N)N)NC(=O)[C@H](CCCNC(=N)N)NC(=O)[C@H](Cc1ccc(O)cc1)NC(=O)[C@H](CC(C)C)NC(=O)[C@@H]1CCCN1C(=O)[C@H](CC(N)=O)NC(=O)[C@H](CCCCN)NC(=O)[C@H](C)NC(=O)[C@H](CCCCN)NC(=O)[C@H](CO)NC(=O)[C@@H](N)CCCNC(=N)N)C(=O)NCCCC[C@H](NC(=O)[C@H](CCCCNC(=O)[C@H](CCCNC(=N)N)NC(=O)[C@H](Cc1ccc(O)cc1)NC(=O)[C@H](CC(C)C)NC(=O)[C@@H]1CCCN1C(=O)[C@H](CC(N)=O)NC(=O)[C@H](CCCCN)NC(=O)[C@H](C)NC(=O)[C@H](CCCCN)NC(=O)[C@H](CO)NC(=O)[C@@H](N)CCCNC(=N)N)NC(=O)[C@H](CCCCNC(=O)[C@H](CCCCNC(=O)[C@H](CCCNC(=N)N)NC(=O)[C@H](Cc1ccc(O)cc1)NC(=O)[C@H](CC(C)C)NC(=O)[C@@H]1CCCN1C(=O)[C@H](CC(N)=O)NC(=O)[C@H](CCCCN)NC(=O)[C@H](C)NC(=O)[C@H](CCCCN)NC(=O)[C@H](CO)NC(=O)[C@@H](N)CCCNC(=N)N)NC(=O)[C@H](CCCNC(=N)N)NC(=O)[C@H](Cc1ccc(O)cc1)NC(=O)[C@H](CC(C)C)NC(=O)[C@@H]1CCCN1C(=O)[C@H](CC(N)=O)NC(=O)[C@H](CCCCN)NC(=O)[C@H](C)NC(=O)[C@H](CCCCN)NC(=O)[C@H](CO)NC(=O)[C@@H](N)CCCNC(=N)N)NC(=O)[C@H](CCCCNC(=O)[C@H](CCCNC(=N)N)NC(=O)[C@H](Cc1ccc(O)cc1)NC(=O)[C@H](CC(C)C)NC(=O)[C@@H]1CCCN1C(=O)[C@H](CC(N)=O)NC(=O)[C@H](CCCCN)NC(=O)[C@H](C)NC(=O)[C@H](CCCCN)NC(=O)[C@H](CO)NC(=O)[C@@H](N)CCCNC(=N)N)NC(=O)[C@H](CCCNC(=N)N)NC(=O)[C@H](Cc1ccc(O)cc1)NC(=O)[C@H](CC(C)C)NC(=O)[C@@H]1CCCN1C(=O)[C@H](CC(N)=O)NC(=O)[C@H](CCCCN)NC(=O)[C@H](C)NC(=O)[C@H](CCCCN)NC(=O)[C@H](CO)NC(=O)[C@@H](N)CCCNC(=N)N)C(=O)NCCC(N)=O [IK248B]
tumour growth compared to vehicle only control (20 mg/kg intra-tumoural once daily for five days): markedly inhibited | average tumour weight at the end of the study (20 mg/kg intra-tumoural once daily for five days, Day 24, control 0.962 g): 0.437 g | dT/dC [%] (Day 0): 100.0% | Tumour volume, Delta avg (Day 0): 0.0 mm^3 | Tumour volume, Average (Day 0 post-initial treatment): 68.0 mm^3 | dT/dC [%] (Day 2): 134.3% | Tumour volume, Delta avg (Day 2): 68.6 mm^3 | Tumour volume, Average (Day 2 post-initial treatment): 136.6 mm^3 | dT/dC [%] (Day 4): 102.0% | Tumour volume, Delta avg (Day 4): 144.0 mm^3 | Tumour volume, Average (Day 4 post-initial treatment): 211.9 mm^3 | dT/dC [%] (Day 7): 68.1% | Tumour volume, Delta avg (Day 7): 180.6 mm^3 | Tumour volume, Average (Day 7 post-initial treatment): 248.6 mm^3 | dT/dC [%] (Day 11): 58.0% | Tumour volume, Delta avg (Day 11): 232.9 mm^3 | Tumour volume, Average (Day 11 post-initial treatment): 300.9 mm^3 | dT/dC [%] (Day 14): 44.6% | Tumour volume, Delta avg (Day 14): 255.9 mm^3 | Tumour volume, Average (Day 14 post-initial treatment): 323.9 mm^3 | dT/dC [%] (Day 16): 45.2% | Tumour volume, Delta avg (Day 16): 323.1 mm^3 | Tumour volume, Average (Day 16 post-initial treatment): 391.0 mm^3 | dT/dC [%] (Day 18): 47.1% | Tumour volume, Delta avg (Day 18): 408.9 mm^3 | Tumour volume, Average (Day 18 post-initial treatment): 476.9 mm^3 | dT/dC [%] (Day 21): 55.7% | Tumour volume, Delta avg (Day 21): 598.7 mm^3 | Tumour volume, Average (Day 21 post-initial treatment): 601.5 mm^3 | dT/dC [%] (Day 24): 54.5% | Tumour volume, Delta avg (Day 24): 710.4 mm^3 | Tumour volume, Average (Day 24 post-initial treatment): 702.1 mm^3
